{
  "source": "ChEMBL document CHEMBL1149526",
  "about": "“Synthesis and SAR of selective benzothiophene, benzofuran, and indole-based peroxisome proliferator-activated receptor delta agonists” (Bioorg Med Chem Lett, 2007)",
  "key": {"[1]": {"molecular_target": "T1, Peroxisome proliferator-activated receptor alpha (Homo sapiens, UniProt Q07869)", "T1 sequence (Q07869 whole entry)": "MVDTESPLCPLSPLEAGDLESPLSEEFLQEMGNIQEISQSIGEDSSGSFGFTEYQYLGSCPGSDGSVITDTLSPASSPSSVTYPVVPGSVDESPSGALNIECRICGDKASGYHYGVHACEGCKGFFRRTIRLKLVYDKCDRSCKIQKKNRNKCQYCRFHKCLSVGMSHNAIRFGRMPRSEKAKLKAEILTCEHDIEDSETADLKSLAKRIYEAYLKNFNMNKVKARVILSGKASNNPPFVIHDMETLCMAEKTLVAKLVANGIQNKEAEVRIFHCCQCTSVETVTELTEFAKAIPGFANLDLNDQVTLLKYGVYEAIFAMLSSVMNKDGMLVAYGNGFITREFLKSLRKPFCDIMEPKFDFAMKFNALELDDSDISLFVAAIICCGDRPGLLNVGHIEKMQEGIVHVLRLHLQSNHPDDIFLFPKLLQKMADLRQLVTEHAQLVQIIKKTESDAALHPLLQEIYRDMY"}, "[2]": {"molecular_target": "T2, Peroxisome proliferator-activated receptor delta (Homo sapiens, UniProt Q03181)", "T2 sequence (Q03181 whole entry)": "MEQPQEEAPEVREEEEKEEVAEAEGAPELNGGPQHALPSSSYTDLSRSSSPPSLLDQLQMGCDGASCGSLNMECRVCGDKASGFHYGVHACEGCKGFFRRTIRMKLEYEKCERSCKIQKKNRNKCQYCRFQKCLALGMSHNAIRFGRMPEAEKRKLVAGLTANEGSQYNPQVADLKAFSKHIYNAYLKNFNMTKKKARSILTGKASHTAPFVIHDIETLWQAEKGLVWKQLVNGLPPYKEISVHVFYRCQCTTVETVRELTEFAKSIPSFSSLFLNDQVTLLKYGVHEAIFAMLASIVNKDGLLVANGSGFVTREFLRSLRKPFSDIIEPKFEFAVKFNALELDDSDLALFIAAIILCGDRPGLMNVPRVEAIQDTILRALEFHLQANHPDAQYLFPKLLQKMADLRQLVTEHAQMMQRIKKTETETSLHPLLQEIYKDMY", "type": "functional, cell-based, HepG2"}, "[3]": {"molecular_target": "T2, Peroxisome proliferator-activated receptor delta"}},
  "data": [
    {"smiles": "O=C(O)Cn1ccc2cc(OCc3ccccc3COc3ccc(C(F)(F)F)cc3)ccc21", "values": [
      {"measurement": "IC50", "setting": "[1]", "value": "> 10000", "unit": "nM"},
      {"measurement": "EC50", "setting": "[2]", "value": 3080, "unit": "nM"},
      {"measurement": "IC50", "setting": "[3]", "value": 734, "unit": "nM"}
    ]},
    {"smiles": "O=C(O)Cn1ccc2cc(OCc3cccc(COc4ccc(C(F)(F)F)cc4)c3)ccc21", "values": [
      {"measurement": "IC50", "setting": "[1]", "value": 179, "unit": "nM"},
      {"measurement": "EC50", "setting": "[2]", "value": 254, "unit": "nM"},
      {"measurement": "IC50", "setting": "[3]", "value": 13, "unit": "nM"}
    ]},
    {"smiles": "Cc1nc(C(F)(F)F)sc1CSc1ccc2c(ccn2CC(=O)O)c1", "values": [
      {"measurement": "IC50", "setting": "[1]", "value": 172, "unit": "nM"},
      {"measurement": "EC50", "setting": "[2]", "value": 4, "unit": "nM"},
      {"measurement": "IC50", "setting": "[3]", "value": 2.8, "unit": "nM"}
    ]},
    {"smiles": "Cc1nc(-c2ccc(C(F)(F)F)cc2)sc1COc1ccc2c(CC(=O)O)csc2c1", "values": [
      {"measurement": "IC50", "setting": "[1]", "value": 482, "unit": "nM"}
    ]},
    {"smiles": "O=C(O)Cc1csc2cc(OCc3cc(-c4ccc(Cl)cc4)on3)ccc12", "values": [
      {"measurement": "IC50", "setting": "[1]", "value": 3820, "unit": "nM"},
      {"measurement": "EC50", "setting": "[2]", "value": 226, "unit": "nM"},
      {"measurement": "IC50", "setting": "[3]", "value": 7.7, "unit": "nM"}
    ]},
    {"smiles": "O=C(O)Cc1coc2cc(OCc3cc(-c4ccc(C(F)(F)F)cc4)on3)ccc12", "values": [
      {"measurement": "IC50", "setting": "[1]", "value": 1420, "unit": "nM"},
      {"measurement": "EC50", "setting": "[2]", "value": 1610, "unit": "nM"},
      {"measurement": "IC50", "setting": "[3]", "value": 25, "unit": "nM"}
    ]},
    {"smiles": "Cc1nc(-c2ccc(C(F)(F)F)cc2)sc1COc1cc(Cl)c2c(CC(=O)O)csc2c1", "values": [
      {"measurement": "IC50", "setting": "[1]", "value": 1040, "unit": "nM"},
      {"measurement": "EC50", "setting": "[2]", "value": 227, "unit": "nM"},
      {"measurement": "IC50", "setting": "[3]", "value": 58, "unit": "nM"}
    ]},
    {"smiles": "Cc1cc2c(CC(=O)O)csc2cc1OCc1cc(-c2ccc(Cl)cc2)on1", "values": [
      {"measurement": "IC50", "setting": "[1]", "value": 5810, "unit": "nM"},
      {"measurement": "EC50", "setting": "[2]", "value": 656, "unit": "nM"},
      {"measurement": "IC50", "setting": "[3]", "value": 37, "unit": "nM"}
    ]},
    {"smiles": "O=C(O)Cc1csc2cc(OCc3cc(-c4ccc(Cl)cc4)on3)cc(Cl)c12", "values": [
      {"measurement": "IC50", "setting": "[1]", "value": 3840, "unit": "nM"},
      {"measurement": "EC50", "setting": "[2]", "value": 6360, "unit": "nM"},
      {"measurement": "IC50", "setting": "[3]", "value": 375, "unit": "nM"}
    ]},
    {"smiles": "Cc1cc(OCc2cc(-c3ccc(C(F)(F)F)cc3)on2)cc2scc(CC(=O)O)c12", "values": [
      {"measurement": "IC50", "setting": "[1]", "value": 1470, "unit": "nM"},
      {"measurement": "EC50", "setting": "[2]", "value": 561, "unit": "nM"},
      {"measurement": "IC50", "setting": "[3]", "value": 37, "unit": "nM"}
    ]},
    {"smiles": "O=C(O)Cc1csc2cc(OCc3ccccc3COc3ccc(C(F)(F)F)cc3)ccc12", "values": [
      {"measurement": "IC50", "setting": "[1]", "value": 7860, "unit": "nM"},
      {"measurement": "EC50", "setting": "[2]", "value": 2230, "unit": "nM"},
      {"measurement": "IC50", "setting": "[3]", "value": 244, "unit": "nM"}
    ]},
    {"smiles": "Cc1cc2c(CC(=O)O)csc2cc1OCc1ccccc1COc1ccc(C(F)(F)F)cc1", "values": [
      {"measurement": "IC50", "setting": "[1]", "value": 4680, "unit": "nM"}
    ]},
    {"smiles": "O=C(O)Cc1csc2cc(OCc3cccc(COc4ccc(C(F)(F)F)cc4)c3)ccc12", "values": [
      {"measurement": "IC50", "setting": "[1]", "value": 963, "unit": "nM"}
    ]},
    {"smiles": "O=C(O)Cc1csc2cc(OCc3ccc(COc4ccc(C(F)(F)F)cc4)cc3)ccc12", "values": [
      {"measurement": "IC50", "setting": "[1]", "value": 229, "unit": "nM"}
    ]},
    {"smiles": "O=C(O)Cc1coc2cc(OCc3cccc(COc4ccc(C(F)(F)F)cc4)c3)ccc12", "values": [
      {"measurement": "IC50", "setting": "[1]", "value": 2500, "unit": "nM"}
    ]},
    {"smiles": "O=C(O)Cc1coc2cc(OCc3ccc(COc4ccc(C(F)(F)F)cc4)cc3)ccc12", "values": [
      {"measurement": "IC50", "setting": "[1]", "value": 2380, "unit": "nM"},
      {"measurement": "EC50", "setting": "[2]", "value": 3440, "unit": "nM"},
      {"measurement": "IC50", "setting": "[3]", "value": 81, "unit": "nM"}
    ]},
    {"smiles": "Cc1nc(C(F)(F)F)sc1COc1ccc2c(ccn2CC(=O)O)c1", "values": [
      {"measurement": "IC50", "setting": "[1]", "value": 550, "unit": "nM"},
      {"measurement": "EC50", "setting": "[2]", "value": 223, "unit": "nM"},
      {"measurement": "IC50", "setting": "[3]", "value": 6.8, "unit": "nM"}
    ]},
    {"smiles": "Cc1nc(-c2ccc(C(F)(F)F)cc2)sc1COc1ccc2c(CC(=O)O)coc2c1", "values": [
      {"measurement": "IC50", "setting": "[1]", "value": 679, "unit": "nM"},
      {"measurement": "EC50", "setting": "[2]", "value": 243, "unit": "nM"},
      {"measurement": "IC50", "setting": "[3]", "value": 14, "unit": "nM"}
    ]},
    {"smiles": "O=C(O)Cc1coc2cc(OCc3cc(-c4ccc(Cl)cc4)on3)ccc12", "values": [
      {"measurement": "IC50", "setting": "[1]", "value": 2380, "unit": "nM"},
      {"measurement": "EC50", "setting": "[2]", "value": 323, "unit": "nM"},
      {"measurement": "IC50", "setting": "[3]", "value": 81, "unit": "nM"}
    ]},
    {"smiles": "Cc1cc2c(CC(=O)O)csc2cc1OCc1sc(-c2ccc(C(F)(F)F)cc2)nc1C", "values": [
      {"measurement": "IC50", "setting": "[1]", "value": 683, "unit": "nM"},
      {"measurement": "IC50", "setting": "[3]", "value": 237, "unit": "nM"}
    ]},
    {"smiles": "Cc1cc(OCc2cc(-c3ccc(Cl)cc3)on2)cc2scc(CC(=O)O)c12", "values": [
      {"measurement": "IC50", "setting": "[1]", "value": 311, "unit": "nM"},
      {"measurement": "EC50", "setting": "[2]", "value": 638, "unit": "nM"},
      {"measurement": "IC50", "setting": "[3]", "value": 23, "unit": "nM"}
    ]},
    {"smiles": "O=C(O)Cc1csc2cc(OCc3cc(-c4ccc(C(F)(F)F)cc4)on3)ccc12", "values": [
      {"measurement": "IC50", "setting": "[1]", "value": 261, "unit": "nM"},
      {"measurement": "EC50", "setting": "[2]", "value": 305, "unit": "nM"},
      {"measurement": "IC50", "setting": "[3]", "value": 11, "unit": "nM"}
    ]},
    {"smiles": "O=C(O)Cn1ccc2cc(OCc3ccc(Oc4ccc(C(F)(F)F)cc4)cc3)ccc21", "values": [
      {"measurement": "IC50", "setting": "[1]", "value": 562, "unit": "nM"},
      {"measurement": "EC50", "setting": "[2]", "value": 2810, "unit": "nM"},
      {"measurement": "IC50", "setting": "[3]", "value": 91, "unit": "nM"}
    ]},
    {"smiles": "O=C(O)Cc1csc2cc(OCc3cc(-c4ccc(C(F)(F)F)cc4)on3)cc(Cl)c12", "values": [
      {"measurement": "IC50", "setting": "[1]", "value": 1350, "unit": "nM"},
      {"measurement": "EC50", "setting": "[2]", "value": 2360, "unit": "nM"},
      {"measurement": "IC50", "setting": "[3]", "value": 97, "unit": "nM"}
    ]},
    {"smiles": "O=C(O)Cc1coc2cc(OCc3ccccc3COc3ccc(C(F)(F)F)cc3)ccc12", "values": [
      {"measurement": "IC50", "setting": "[1]", "value": "> 10000", "unit": "nM"},
      {"measurement": "EC50", "setting": "[2]", "value": 3120, "unit": "nM"},
      {"measurement": "IC50", "setting": "[3]", "value": 662, "unit": "nM"}
    ]},
    {"smiles": "O=C(O)Cn1ccc2cc(OCc3cc(-c4ccc(C(F)(F)F)cc4)on3)ccc21", "values": [
      {"measurement": "IC50", "setting": "[1]", "value": 835, "unit": "nM"},
      {"measurement": "EC50", "setting": "[2]", "value": 1390, "unit": "nM"},
      {"measurement": "IC50", "setting": "[3]", "value": 31, "unit": "nM"}
    ]}
  ]
}
